PubChem BioAssay (NCI)
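Values below derive from 48-hour exposures of cells grown in 96-well plates, with endpoints linearly interpolated between the two concentrations bracketing the appropriate inhibition level. TGI marks complete inhibition of growth.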

The compounds below were run on HOP-18 NSCLC (assay: DTP human tumour cell line panel, 48 h).
For `CN(c1nc(=[N+](C)C)ss1)C1CCCCC1`, the TGI was > 100 µM.
`CCOC(=O)c1sc2c(sc(=O)n2-c2ccccc2)c1O` was tested, and the TGI was > 100 µM.
`Cc1ccc(NC(=O)CC(=O)n2nc(-c3ccccc3)c(N=Nc3ccccc3[N+](=O)[O-])c2-c2ccccc2)cc1` was tested, and the TGI was > 100 µM.
With `C/C(=N/NC(=O)c1ccccc1O)c1ccc(/C(C)=N\NC(=O)c2ccccc2O)c2nc3cc(C)c(C)cc3nc12` the TGI was > 100 µM.

Each compound was assayed on HOP-62 NSCLC (assay: DTP human tumour cell line panel, 48 h).
`COc1ccc(/C=C/c2cc(OC)cc(OC)c2)cc1` showed a TGI of 32.6 µM.
`CN(c1nc(=[N+](C)C)ss1)C1CCCCC1` was tested, and the TGI was > 100 µM.
With `CCOC(=O)c1sc2c(sc(=O)n2-c2ccccc2)c1O` the TGI was > 100 µM.
With `Cc1ccc(NC(=O)CC(=O)n2nc(-c3ccccc3)c(N=Nc3ccccc3[N+](=O)[O-])c2-c2ccccc2)cc1` the TGI was > 100 µM.
`C/C(=N/NC(=O)c1ccccc1O)c1ccc(/C(C)=N\NC(=O)c2ccccc2O)c2nc3cc(C)c(C)cc3nc12` was tested, and the TGI was > 100 µM.

What follows are compounds tested on HOP-92 NSCLC (assay: DTP human tumour cell line panel, 48 h).
In the case of `COc1ccc(/C=C/c2cc(OC)cc(OC)c2)cc1`, the TGI is reported as > 100 µM.
For `CN(c1nc(=[N+](C)C)ss1)C1CCCCC1`, the TGI was > 100 µM.
With `CCOC(=O)c1sc2c(sc(=O)n2-c2ccccc2)c1O` the TGI was > 100 µM.
`Cc1ccc(NC(=O)CC(=O)n2nc(-c3ccccc3)c(N=Nc3ccccc3[N+](=O)[O-])c2-c2ccccc2)cc1` was tested, and the TGI was > 100 µM.
`C/C(=N/NC(=O)c1ccccc1O)c1ccc(/C(C)=N\NC(=O)c2ccccc2O)c2nc3cc(C)c(C)cc3nc12` was tested, and the TGI was > 100 µM.

These compounds were tested on HT29 colon (assay: DTP human tumour cell line panel, 48 h).
`COc1ccc(/C=C/c2cc(OC)cc(OC)c2)cc1` was tested, and the TGI was > 36.6 µM.
With `CN(c1nc(=[N+](C)C)ss1)C1CCCCC1` the TGI was > 100 µM.
For `CCOC(=O)c1sc2c(sc(=O)n2-c2ccccc2)c1O`, the TGI was > 100 µM.
`Cc1ccc(NC(=O)CC(=O)n2nc(-c3ccccc3)c(N=Nc3ccccc3[N+](=O)[O-])c2-c2ccccc2)cc1` was tested, and the TGI was > 100 µM.
For `C/C(=N/NC(=O)c1ccccc1O)c1ccc(/C(C)=N\NC(=O)c2ccccc2O)c2nc3cc(C)c(C)cc3nc12`, the TGI was > 100 µM.

The compounds below were run on IGROV1 ovarian (assay: DTP human tumour cell line panel, 48 h).
`COc1ccc(/C=C/c2cc(OC)cc(OC)c2)cc1` was tested, and the TGI was > 100 µM.
In the case of `CN(c1nc(=[N+](C)C)ss1)C1CCCCC1`, the TGI is reported as > 100 µM.
With `CCOC(=O)c1sc2c(sc(=O)n2-c2ccccc2)c1O` the TGI was > 100 µM.
For `Cc1ccc(NC(=O)CC(=O)n2nc(-c3ccccc3)c(N=Nc3ccccc3[N+](=O)[O-])c2-c2ccccc2)cc1`, the TGI was > 100 µM.
With `C/C(=N/NC(=O)c1ccccc1O)c1ccc(/C(C)=N\NC(=O)c2ccccc2O)c2nc3cc(C)c(C)cc3nc12` the TGI was > 100 µM.

These compounds were tested on K-562 leukemia (assay: DTP human tumour cell line panel, 48 h).
In the case of `COc1ccc(/C=C/c2cc(OC)cc(OC)c2)cc1`, the TGI is reported as > 100 µM.
With `CN(c1nc(=[N+](C)C)ss1)C1CCCCC1` the TGI was > 100 µM.
For `CCOC(=O)c1sc2c(sc(=O)n2-c2ccccc2)c1O`, the TGI was > 100 µM.
With `Cc1ccc(NC(=O)CC(=O)n2nc(-c3ccccc3)c(N=Nc3ccccc3[N+](=O)[O-])c2-c2ccccc2)cc1` the TGI was > 100 µM.
In the case of `C/C(=N/NC(=O)c1ccccc1O)c1ccc(/C(C)=N\NC(=O)c2ccccc2O)c2nc3cc(C)c(C)cc3nc12`, the TGI is reported as > 100 µM.

The compounds below were run on KM12 colon (assay: DTP human tumour cell line panel, 48 h).
In the case of `COc1ccc(/C=C/c2cc(OC)cc(OC)c2)cc1`, the TGI is reported as > 69.1 µM.
For `CN(c1nc(=[N+](C)C)ss1)C1CCCCC1`, the TGI was > 100 µM.
`CCOC(=O)c1sc2c(sc(=O)n2-c2ccccc2)c1O` was tested, and the TGI was > 100 µM.
In the case of `Cc1ccc(NC(=O)CC(=O)n2nc(-c3ccccc3)c(N=Nc3ccccc3[N+](=O)[O-])c2-c2ccccc2)cc1`, the TGI is reported as > 100 µM.
In the case of `C/C(=N/NC(=O)c1ccccc1O)c1ccc(/C(C)=N\NC(=O)c2ccccc2O)c2nc3cc(C)c(C)cc3nc12`, the TGI is reported as > 100 µM.

These compounds were tested on KM20L2 colon (assay: DTP human tumour cell line panel, 48 h).
In the case of `COc1ccc(/C=C/c2cc(OC)cc(OC)c2)cc1`, the TGI is reported as 11.7 µM.
`CN(c1nc(=[N+](C)C)ss1)C1CCCCC1` was tested, and the TGI was > 100 µM.
With `CCOC(=O)c1sc2c(sc(=O)n2-c2ccccc2)c1O` the TGI was > 100 µM.
With `Cc1ccc(NC(=O)CC(=O)n2nc(-c3ccccc3)c(N=Nc3ccccc3[N+](=O)[O-])c2-c2ccccc2)cc1` the TGI was > 100 µM.
`C/C(=N/NC(=O)c1ccccc1O)c1ccc(/C(C)=N\NC(=O)c2ccccc2O)c2nc3cc(C)c(C)cc3nc12` was tested, and the TGI was > 100 µM.

The compounds below were run on LOX IMVI melanoma (assay: DTP human tumour cell line panel, 48 h).
In the case of `COc1ccc(/C=C/c2cc(OC)cc(OC)c2)cc1`, the TGI is reported as > 100 µM.
`CN(c1nc(=[N+](C)C)ss1)C1CCCCC1` was tested, and the TGI was > 100 µM.
In the case of `CCOC(=O)c1sc2c(sc(=O)n2-c2ccccc2)c1O`, the TGI is reported as > 100 µM.
`Cc1ccc(NC(=O)CC(=O)n2nc(-c3ccccc3)c(N=Nc3ccccc3[N+](=O)[O-])c2-c2ccccc2)cc1` was tested, and the TGI was > 100 µM.
`C/C(=N/NC(=O)c1ccccc1O)c1ccc(/C(C)=N\NC(=O)c2ccccc2O)c2nc3cc(C)c(C)cc3nc12` was tested, and the TGI was > 100 µM.

Each compound was assayed on LXFL 529 NSCLC (assay: DTP human tumour cell line panel, 48 h).
With `COc1ccc(/C=C/c2cc(OC)cc(OC)c2)cc1` the TGI was > 100 µM.
For `CN(c1nc(=[N+](C)C)ss1)C1CCCCC1`, the TGI was > 100 µM.
In the case of `CCOC(=O)c1sc2c(sc(=O)n2-c2ccccc2)c1O`, the TGI is reported as > 100 µM.
With `Cc1ccc(NC(=O)CC(=O)n2nc(-c3ccccc3)c(N=Nc3ccccc3[N+](=O)[O-])c2-c2ccccc2)cc1` the TGI was > 100 µM.
With `C/C(=N/NC(=O)c1ccccc1O)c1ccc(/C(C)=N\NC(=O)c2ccccc2O)c2nc3cc(C)c(C)cc3nc12` the TGI was > 100 µM.

These compounds were tested on M14 melanoma (assay: DTP human tumour cell line panel, 48 h).
With `COc1ccc(/C=C/c2cc(OC)cc(OC)c2)cc1` the TGI was 53.1 µM.
In the case of `CN(c1nc(=[N+](C)C)ss1)C1CCCCC1`, the TGI is reported as > 100 µM.
With `CCOC(=O)c1sc2c(sc(=O)n2-c2ccccc2)c1O` the TGI was > 100 µM.
With `Cc1ccc(NC(=O)CC(=O)n2nc(-c3ccccc3)c(N=Nc3ccccc3[N+](=O)[O-])c2-c2ccccc2)cc1` the TGI was > 100 µM.
In the case of `C/C(=N/NC(=O)c1ccccc1O)c1ccc(/C(C)=N\NC(=O)c2ccccc2O)c2nc3cc(C)c(C)cc3nc12`, the TGI is reported as > 100 µM.

The compounds below were run on M19-MEL melanoma (assay: DTP human tumour cell line panel, 48 h).
For `COc1ccc(/C=C/c2cc(OC)cc(OC)c2)cc1`, the TGI was > 100 µM.
In the case of `CN(c1nc(=[N+](C)C)ss1)C1CCCCC1`, the TGI is reported as > 100 µM.
`CCOC(=O)c1sc2c(sc(=O)n2-c2ccccc2)c1O` was tested, and the TGI was > 100 µM.
With `Cc1ccc(NC(=O)CC(=O)n2nc(-c3ccccc3)c(N=Nc3ccccc3[N+](=O)[O-])c2-c2ccccc2)cc1` the TGI was > 100 µM.
With `C/C(=N/NC(=O)c1ccccc1O)c1ccc(/C(C)=N\NC(=O)c2ccccc2O)c2nc3cc(C)c(C)cc3nc12` the TGI was > 100 µM.

What follows are compounds tested on MALME-3M melanoma (assay: DTP human tumour cell line panel, 48 h).
In the case of `COc1ccc(/C=C/c2cc(OC)cc(OC)c2)cc1`, the TGI is reported as > 100 µM.
In the case of `CN(c1nc(=[N+](C)C)ss1)C1CCCCC1`, the TGI is reported as > 100 µM.
`CCOC(=O)c1sc2c(sc(=O)n2-c2ccccc2)c1O` was tested, and the TGI was > 100 µM.
In the case of `Cc1ccc(NC(=O)CC(=O)n2nc(-c3ccccc3)c(N=Nc3ccccc3[N+](=O)[O-])c2-c2ccccc2)cc1`, the TGI is reported as > 100 µM.
`C/C(=N/NC(=O)c1ccccc1O)c1ccc(/C(C)=N\NC(=O)c2ccccc2O)c2nc3cc(C)c(C)cc3nc12` was tested, and the TGI was > 100 µM.

The compounds below were run on MOLT-4 leukemia (assay: DTP human tumour cell line panel, 48 h).
For `COc1ccc(/C=C/c2cc(OC)cc(OC)c2)cc1`, the TGI was > 51 µM.
In the case of `CN(c1nc(=[N+](C)C)ss1)C1CCCCC1`, the TGI is reported as > 100 µM.
With `CCOC(=O)c1sc2c(sc(=O)n2-c2ccccc2)c1O` the TGI was > 100 µM.
In the case of `Cc1ccc(NC(=O)CC(=O)n2nc(-c3ccccc3)c(N=Nc3ccccc3[N+](=O)[O-])c2-c2ccccc2)cc1`, the TGI is reported as > 100 µM.
In the case of `C/C(=N/NC(=O)c1ccccc1O)c1ccc(/C(C)=N\NC(=O)c2ccccc2O)c2nc3cc(C)c(C)cc3nc12`, the TGI is reported as > 100 µM.

The compounds below were run on NCI-H226 lung (assay: DTP human tumour cell line panel, 48 h).
With `COc1ccc(/C=C/c2cc(OC)cc(OC)c2)cc1` the TGI was > 31.1 µM.
With `CN(c1nc(=[N+](C)C)ss1)C1CCCCC1` the TGI was > 100 µM.
